# Laboratory results published in US20210221808A1, “3-OXAZOLINONE COMPOUND, PREPARATION METHOD THEREFOR AND PHARMACEUTICAL APPLICATION THEREOF” (Beijing Innocare Pharma Tech Co., Ltd., priority 2018, published 2021).
# Columns and labels:
# [1] = target: T1, indoleamine 2,3-dioxygenase (IDO) activity in Hela cells (Homo sapiens, UniProt P14902); experiment: IDO Intracellular Activity Inhibition Test (Ehrlich method, IFN-γ induced Hela cells); type: cell-based; conditions: IDO activity in Hela cells induced by IFN-γ, 24 hours incubation, OD490
# T1 construct: a certain concentration of IFN-γ can induce Hela cells to express IDO; host or cells: HeLa cells induced with IFN-γ
# T1 sequence (P14902 whole entry): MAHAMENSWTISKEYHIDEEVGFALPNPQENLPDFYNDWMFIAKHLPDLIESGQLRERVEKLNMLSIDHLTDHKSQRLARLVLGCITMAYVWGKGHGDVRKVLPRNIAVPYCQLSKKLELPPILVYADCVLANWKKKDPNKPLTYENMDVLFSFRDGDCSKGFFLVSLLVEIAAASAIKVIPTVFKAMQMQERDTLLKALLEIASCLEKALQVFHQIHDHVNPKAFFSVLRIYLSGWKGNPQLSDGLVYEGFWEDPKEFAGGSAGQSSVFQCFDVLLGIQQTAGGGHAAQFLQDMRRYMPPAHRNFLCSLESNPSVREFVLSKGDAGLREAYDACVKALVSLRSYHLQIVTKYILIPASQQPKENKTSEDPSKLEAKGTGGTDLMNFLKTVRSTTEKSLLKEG
# Description: IDO Intracellular Activity Inhibition Test
# The effect of the compound of the present invention on the indoleamine 2,3-dioxygenase (IDO) activity in Hela cells induced by IFN-γ was evaluated by the Ehrlich method.
# The principle underlined for this experiment is summarized as follows: The expression of IDO in Hela cells is low in the absence of any induction. However, a certain concentration of IFN-γ can induce Hela cells to express IDO, so that it can catalyze the production of N-formylkynurenine from tryptophan. The produced N-formylkynurenine can be hydrolyzed by trichloroacetic acid to kynurenine, then a color reaction of the achieved kynurenine with Ehrlich reagent can be used to detect the activity of IDO. The absorbance at 490 nm (OD490) is in proportion to the activity of IDO.
# The compound was dissolved and diluted to 5 mM with DMSO (Sigma, catalog number: D5879), then serially diluted in 3 folds each time with DMSO to a minimum concentration of 2.29 μM. The diluent at each concentration point was further diluted in 50 folds with DMEM medium (ThermoFisher, catalog number: 11995073) free of FBS. If the IC50 value of the compound was very low, the initial concentration of the compound could be lowered. Hela cells (ATCC, catalog number CCL-2) were cultured in DMEM complete medium containing 10% FBS (GBICO, catalog number 10099-141) and 100 U/mL penicillin streptomycin mixture (ThermoFisher, catalog number 15140122). When the cell coverage in the culture vessel reached 80-90%, 0.25% pancreatin (containing EDTA) (ThermoFisher, catalog number 25200056) was used to digest and blow off the cells, and the cells were grown in a 96-well plate (Corning, catalog number 3599), 30,000 cells per well (80 μL DMEM medium). The 96-well plate was then incubated in an incubator (37° C., 5% CO2) overnight (18-20 hours).
# 10 μL of DMEM diluted compound and 10 μL of 500 ng/mL INF-γ were added to each well, and mixed gently. The 96-well plate was placed into an incubator (37° C., 5% CO2) for further incubation. The mixture was taken out and centrifuged at 2000×g at room temperature for 5 minutes after 24 hours of incubation, the supernatant was transferred to the reaction plate (Sigma, catalog number CLS3695), one-twentieth of trichloroacetic acid (Sigma, product number T9159) was added, and incubated at 60° C. after mixed well. 30 minutes later, the reaction plate was taken out and centrifuged at 2000×g at room temperature for 5 minutes, the supernatant was transferred to a clean reaction plate, equal volume of Ehrlich reagent was added, and the mixture was incubated at room temperature after mixed well. The OD490 of each well was determined 5 minutes later.
# In the experiment, OD490 of the DMEM medium control group without IFN-γ was used as OD490100% inhbition; OD490 of the group in which the final concentration of IFN-γ in DMSO was 0.2% was used ads OD4900% inhbition.
# The percent inhibition of IDO activity in Hela cells by a compound can be calculated by the following formula: […]
# IC50 of a compound was calculated by the following formula using 8 concentration points and XLfit (ID Business Solutions Ltd., UK) software
# Y=Bottom+(Top−Bottom)/(1+10^((log IC50−X)*slope factor))
# where Y is inhibition percentage. Bottom is the bottom plateau of the S-type curve, Top is the top plateau of the S-type curve, X is the logarithm of the concentration of the tested compound, and slope factor is the slope coefficient of the curve.
# plasma IDO activity = target: T2, plasma IDO activity (Mus musculus, UniProt P28776); conditions: single administration, blank mice; cited from earlier work
# T2 construct: host or cells: mice, in vivo
# T2 sequence (P28776 whole entry): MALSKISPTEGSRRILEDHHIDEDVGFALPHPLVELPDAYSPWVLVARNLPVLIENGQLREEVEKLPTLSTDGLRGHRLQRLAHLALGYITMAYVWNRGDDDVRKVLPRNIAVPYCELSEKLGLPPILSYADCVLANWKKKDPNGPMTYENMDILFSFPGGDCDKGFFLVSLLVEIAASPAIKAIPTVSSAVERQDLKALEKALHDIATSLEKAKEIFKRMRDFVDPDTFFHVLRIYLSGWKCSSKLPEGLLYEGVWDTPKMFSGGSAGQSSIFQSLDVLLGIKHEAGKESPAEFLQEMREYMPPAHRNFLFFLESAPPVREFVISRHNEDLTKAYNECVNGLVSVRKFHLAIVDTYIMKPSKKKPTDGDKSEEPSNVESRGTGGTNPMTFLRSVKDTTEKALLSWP
# CT26 tumors = conditions: repeated administration; cited from earlier work
IC50 [1],SMILES,inhibition of plasma IDO activity (plasma IDO activity),expansion of CT26 tumors (CT26 tumors)
< 0.05 µM,"C[C@H]([C@H]1CC[C@@H](c2ccnc3ccc(F)cc32)CC1)n1[nH]c2cc(Cl)ccc2c1=O [Compound 6, 6-chloro-2-((R)-1-((1s,4S)-4-(6-fluoroquinolin-4-yl)cyclohexyl)ethyl)-1,2-dihydro-3H-indazol-3-one]",,
,NS(=O)(=O)NCCNc1nonc1C(=NO)Nc1ccc(F)c(Br)c1 [INCB-024360],effectively inhibit the plasma IDO activity of blank mice to be at the level of IDO-deficient mice,hinders the expansion of CT26 tumors
< 0.05 µM,"C[C@H]([C@H]1CC[C@@H](c2ccnc3ccc(F)cc32)CC1)n1[nH]c2ccc(Br)cc2c1=O [Compound 11, 5-bromo-2-((R)-1-((1s,4S)-4-(6-fluoroquinolin-4-yl)cyclohexyl)ethyl)-1,2-dihydro-3H-indazol-3-one]",,
< 0.05 µM,"C[C@H]([C@H]1CC[C@@H](c2ccnc3ccc(F)cc32)CC1)n1[nH]c2ccc(Cl)cc2c1=O [Compound 7, 5-chloro-2-((R)-1-((1s,4S)-4-(6-fluoroquinolin-4-yl)cyclohexyl)ethyl)-1,2-dihydro-3H-indazol-3-one]",,
0.05 to 0.2 µM,"O=c1c2ccc(Cl)cc2[nH]n1C[C@H]1CC[C@H](c2ccnc3ccc(F)cc32)CC1 [Compound 1, 6-chloro-2-(((1r,4r)-4-(6-fluoroquinolin-4-yl)cyclohexyl)methyl)-1,2-dihydro-3H-indazol-3-one]",,
< 0.05 µM,"C[C@H]([C@H]1CC[C@@H](c2ccnc3ccc(F)cc32)CC1)n1[nH]c2ncc(Cl)cc2c1=O [Compound 9, 5-chloro-2-((R)-1-((1s,4S)-4-(6-fluoroquinolin-4-yl)cyclohexyl)ethyl)-1,2-dihydro-3H-pyrazolo[3,4-b]pyridin-3-one]",,
< 0.05 µM,"CC([C@H]1CC[C@@H](c2ccnc3ccc(F)cc32)CC1)n1[nH]c2cc(Cl)ccc2c1=O (stereo partly shown) [Compound 4, 6-chloro-2-(1-((1s,4s)-4-(6-fluoroquinolin-4-yl)cyclohexyl)ethyl)-1,2-dihydro-3H-indazol-3-one]",,
0.05 to 0.2 µM,"CC([C@H]1CC[C@H](c2ccnc3ccc(F)cc32)CC1)n1[nH]c2cc(Cl)ccc2c1=O (stereo partly shown) [Compound 3, 6-chloro-2-(1-((1r,4r)-4-(6-fluoroquinolin-4-yl)cyclohexyl)ethyl)-1,2-dihydro-3H-indazol-3-one]",,
< 0.05 µM,"C[C@H]([C@H]1CC[C@@H](c2ccnc3ccc(F)cc32)CC1)n1[nH]c2cc(Cl)cnc2c1=O [Compound 8, 6-chloro-2-((R)-1-((1s,4S)-4-(6-fluoroquinolin-4-yl)cyclohexyl)ethyl)-1,2-dihydro-3H-pyrazolo[4,3-b]pyridin-3-one]",,
< 0.05 µM,"Cc1cc([C@H]2CC[C@@H]([C@@H](C)n3[nH]c4cc(Cl)ccc4c3=O)CC2)ccn1 [Compound 5, 6-chloro-2-((R)-1-((1s,4S)-4-(2-methylpyridin-4-yl)cyclohexyl)ethyl)-1,2-dihydro-3H-indazol-3-one]",,
< 0.05 µM,"C[C@H]([C@H]1CC[C@@H](c2ccnc3ccc(F)cc32)CC1)n1[nH]c2cc(Cl)c(Cl)cc2c1=O [Compound 10, 5,6-dichloro-2-((R)-1-((1s,4S)-4-(6-fluoroquinolin-4-yl)cyclohexyl)ethyl)-1,2-dihydro-3H-indazol-3-one]",,
< 0.05 µM,"O=c1c2ccc(Cl)cc2[nH]n1C[C@H]1CC[C@@H](c2ccnc3ccc(F)cc32)CC1 [Compound 2, 6-chloro-2-(((1s,4s)-4-(6-fluoroquinolin-4-yl)cyclohexyl)methyl)-1,2-dihydro-3H-indazol-3-one]",,
